# Data reported in patent US20260226068A1, “IMIDAZOTRIAZINE IL-17A MODULATORS AND USES THEREOF” (DICE ALPHA, INC., priority 2023, published 2026).
# Tests used:
# IL-17A/A = target: T1, IL-17A/A (Homo sapiens, UniProt Q16552); assay: IL-17A/A HEK-Blue cell assay (SEAP reporter); type: cell-based; conditions: HEK-Blue IL-17A reporter cells, IL17A/A 5 ng/mL, 20 hours, SEAP read at A630; read-out: HEK-Blue IL17AA (IC50 for IL-17A/A inhibition)
# T1 construct: purchased Genscript Z03228
# T1 sequence (Q16552 24-155): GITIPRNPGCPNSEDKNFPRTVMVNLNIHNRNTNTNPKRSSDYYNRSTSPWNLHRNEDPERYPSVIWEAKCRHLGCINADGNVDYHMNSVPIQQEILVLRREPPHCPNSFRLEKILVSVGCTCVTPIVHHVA
# IL-17A/F = target: T2, IL-17A/F (Homo sapiens, UniProt Q16552+Q96PD4); assay: IL-17A/F HEK-Blue cell assay (SEAP reporter); type: cell-based; conditions: HEK-Blue IL-17A reporter cells, IL17A/F 5 ng/mL, 20 hours, SEAP read at A630; read-out: HEK-Blue IL17AF (IC50 for IL-17A/F inhibition)
# T2 construct: purchased R&D Systems
# T2 sequence (Q16552 24-155): T1 sequence (Q16552 24-155)
# T2 sequence (Q96PD4 31-163): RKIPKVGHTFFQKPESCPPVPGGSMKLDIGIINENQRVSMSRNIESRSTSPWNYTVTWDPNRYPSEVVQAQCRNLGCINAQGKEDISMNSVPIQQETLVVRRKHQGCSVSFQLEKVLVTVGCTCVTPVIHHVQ
Structure (SMILES),IC50 (IL-17A/A) [nM],IC50 (IL-17A/F) [nM]
"CCn1nccc1C(=O)N[C@H](c1cn2nc(C[C@H]3C[C@@H](C(F)(F)F)CNC3=O)c(CC3CCOC3)nc2n1)C1CCC(F)(F)CC1 (stereo partly drawn) [Compound 170, N-((1S)-(4,4-difluorocyclohexyl)(2-(((3R,5R)-2-oxo-5-(trifluoromethyl)piperidin-3-yl)methyl)-3-((tetrahydrofuran-3-yl)methyl)imidazo[1,2-b][1,2,4]triazin-6-yl)methyl)-1-ethyl-1H-pyrazole-5-carboxamide]",< 100,100 to 1000
"CCn1nccc1C(=O)N[C@H](c1cn2nc(C[C@H]3C[C@@H](C(F)(F)F)CNC3=O)c(CC3CCCO3)nc2n1)C1CCC(F)(F)CC1 (stereo partly drawn) [Compound 171, N-((1S)-(4,4-difluorocyclohexyl)(2-(((3R,5R)-2-oxo-5-(trifluoromethyl)piperidin-3-yl)methyl)-3-((tetrahydrofuran-2-yl)methyl)imidazo[1,2-b][1,2,4]triazin-6-yl)methyl)-1-ethyl-1H-pyrazole-5-carboxamide]",< 100,100 to 1000
"CCn1nccc1C(=O)N[C@H](c1cn2nc(C[C@H]3C[C@@H](C(F)(F)F)CNC3=O)c(CC3CCCCO3)nc2n1)C1CCC(F)(F)CC1 (stereo partly drawn) [Compound 172, N-((1S)-(4,4-difluorocyclohexyl)(2-(((3R,5R)-2-oxo-5-(trifluoromethyl)piperidin-3-yl)methyl)-3-((tetrahydro-2H-pyran-2-yl)methyl)imidazo[1,2-b][1,2,4]triazin-6-yl)methyl)-1-ethyl-1H-pyrazole-5-carboxamide]",< 100,100 to 1000
"CCn1nccc1C(=O)N[C@H](c1cn2nc(C[C@H]3C[C@@H](C(F)(F)F)CNC3=O)c(CC3COCCO3)nc2n1)C1CCC(F)(F)CC1 (stereo partly drawn) [Compound 173, N-((1S)-(3-((1,4-dioxan-2-yl)methyl)-2-(((3R,5R)-2-oxo-5-(trifluoromethyl)piperidin-3-yl)methyl)imidazo[1,2-b][1,2,4]triazin-6-yl)(4,4-difluorocyclohexyl)methyl)-1-ethyl-1H-pyrazole-5-carboxamide]",100 to 1000,> 1000
"CCn1nccc1C(=O)N[C@H](c1cn2nc(C[C@H]3C[C@@H](C(F)(F)F)CNC3=O)c(CC3CCOCC3)nc2n1)[C@H]1CC[C@H](C)CC1 [Compound 179, 1-ethyl-N-((1S)-((1R,4S)-4-methylcyclohexyl)(2-(((3R,5R)-2-oxo-5-(trifluoromethyl)piperidin-3-yl)methyl)-3-((tetrahydro-2H-pyran-4-yl)methyl)imidazo[1,2-b][1,2,4]triazin-6-yl)methyl)-1H-pyrazole-5-carboxamide]",< 100,< 100
"CCn1nccc1C(=O)N[C@H](c1cn2nc(C[C@H]3C[C@@H](C(F)(F)F)CNC3=O)c(N(C)C3COC3)nc2n1)C1CCC(F)(F)CC1 [Compound 180, N—((S)-(4,4-difluorocyclohexyl)(3-(methyl(oxetan-3-yl)amino)-2-(((3R,5R)-2-oxo-5-(trifluoromethyl)piperidin-3-yl)methyl)imidazo[1,2-b][1,2,4]triazin-6-yl)methyl)-1-ethyl-1H-pyrazole-5-carboxamide]",100 to 1000,> 1000
"O=C(N[C@H](c1cn2nc(C[C@H]3C[C@@H](C(F)(F)F)CNC3=O)c(N3CCOCC3)nc2n1)C1CCC(F)(F)CC1)OCc1cc(C(F)(F)F)on1 [Compound 181, (5-(trifluoromethyl)isoxazol-3-yl)methyl ((S)-(4,4-difluorocyclohexyl)(3-morpholino-2-(((3R,5R)-2-oxo-5-(trifluoromethyl)piperidin-3-yl)methyl)imidazo[1,2-b][1,2,4]triazin-6-yl)methyl)carbamate]",< 100,> 1000
"CCn1nccc1C(=O)N[C@H](c1cn2nc(C[C@H]3C[C@@H](C(F)(F)F)CNC3=O)c(C3CCC(F)(F)CC3)nc2n1)C1CCC(F)(F)CC1 [Compound 182, N-((1S)-(4,4-difluorocyclohexyl)(3-(4,4-difluorocyclohexyl)-2-(((3R,5R)-2-oxo-5-(trifluoromethyl)piperidin-3-yl)methyl)imidazo[1,2-b][1,2,4]triazin-6-yl)methyl)-1-ethyl-1H-pyrazole-5-carboxamide]",< 100,< 100
"O=C(N[C@H](c1cn2nc(C[C@H]3C[C@@H](C(F)(F)F)CNC3=O)c(C3CCOCC3)nc2n1)C1CCC(F)(F)CC1)OCc1cc(C(F)(F)F)on1 [Compound 183, (5-(trifluoromethyl)isoxazol-3-yl)methyl ((1S)-(4,4-difluorocyclohexyl)(2-(((3R,5R)-2-oxo-5-(trifluoromethyl)piperidin-3-yl)methyl)-3-(tetrahydro-2H-pyran-4-yl)imidazo[1,2-b][1,2,4]triazin-6-yl)methyl)carbamate]",< 100,100 to 1000
"O=C(N[C@H](c1cn2nc(C[C@H]3C[C@@H](C(F)(F)F)CNC3=O)c(C3CCOCC3)nc2n1)C1CCC(F)(F)CC1)c1ccnn1C(F)(F)F [Compound 184, N-((1S)-(4,4-difluorocyclohexyl)(2-(((3R,5R)-2-oxo-5-(trifluoromethyl)piperidin-3-yl)methyl)-3-(tetrahydro-2H-pyran-4-yl)imidazo[1,2-b][1,2,4]triazin-6-yl)methyl)-1-(trifluoromethyl)-1H-pyrazole-5-carboxamide]",< 100,> 1000
"O=C(N[C@H](c1cn2nc(C[C@H]3C[C@@H](C(F)(F)F)CNC3=O)c(C3CCOCC3)nc2n1)C1CCC(F)(F)CC1)c1ccnn1C(F)F [Compound 185, N-((1S)-(4,4-difluorocyclohexyl)(2-(((3R,5R)-2-oxo-5-(trifluoromethyl)piperidin-3-yl)methyl)-3-(tetrahydro-2H-pyran-4-yl)imidazo[1,2-b][1,2,4]triazin-6-yl)methyl)-1-(difluoromethyl)-1H-pyrazole-5-carboxamide]",< 100,100 to 1000
"O=C(N[C@H](c1cn2nc(C[C@H]3C[C@@H](C(F)(F)F)CNC3=O)c(C3CCOCC3)nc2n1)C1CCC(F)(F)CC1)c1ccnn1CC(F)(F)F [Compound 186, N-((1S)-(4,4-difluorocyclohexyl)(2-(((3R,5R)-2-oxo-5-(trifluoromethyl)piperidin-3-yl)methyl)-3-(tetrahydro-2H-pyran-4-yl)imidazo[1,2-b][1,2,4]triazin-6-yl)methyl)-1-(2,2,2-trifluoroethyl)-1H-pyrazole-5-carboxamide]",< 100,100 to 1000
"O=C(N[C@H](c1cn2nc(C[C@H]3C[C@@H](C(F)(F)F)CNC3=O)c(C3CCOCC3)nc2n1)C1CCC(F)(F)CC1)c1ccnn1CC(F)F [Compound 187, N-((1S)-(4,4-difluorocyclohexyl)(2-(((3R,5R)-2-oxo-5-(trifluoromethyl)piperidin-3-yl)methyl)-3-(tetrahydro-2H-pyran-4-yl)imidazo[1,2-b][1,2,4]triazin-6-yl)methyl)-1-(2,2-difluoroethyl)-1H-pyrazole-5-carboxamide]",< 100,100 to 1000
"O=C(N[C@H](c1cn2nc(C[C@H]3C[C@@H](C(F)(F)F)CNC3=O)c(C3CCOCC3)nc2n1)C1CCC(F)(F)CC1)c1ccnn1CCF [Compound 188, N-((1S)-(4,4-difluorocyclohexyl)(2-(((3R,5R)-2-oxo-5-(trifluoromethyl)piperidin-3-yl)methyl)-3-(tetrahydro-2H-pyran-4-yl)imidazo[1,2-b][1,2,4]triazin-6-yl)methyl)-1-(2-fluoroethyl)-1H-pyrazole-5-carboxamide]",< 100,100 to 1000
